In patent US10696647B2, “Pharmacological treatment of obsessive-compulsive disorder” (BIOCODEX, priority 2013, dated 2020):
“And” between values parts separate entries of the source, which are not always exact repeats. Identical values can stand only once.

Assays:
Format in all cases: in vivo, NMRI mice
spontaneous locomotion = test: Spontaneous locomotor activity (distance travelled, rearings); conditions: up to 200 mg/kg i.p.; measured for 30 min
Method: Six-week old NMRI mice (30-32 g) were purchased from Janvier breeding (Le Genest-St Isle; France). Mice were housed ten per translucent polypropylene cage (internal dimensions; 37.5 cm×37.5 cm×[…], L×W×H) under standard laboratory conditions (22±2° C., 12-h light/dark cycle, lights on at 7:00 AM) with food (AO4, SAFE, France) and tap water available ad libitum. No less than one week of rest followed their arrival. All animal procedures were carried out in accordance with the European Community council directive of 24 of Nov. 1986 (86/609/EEC) for the care and use of laboratory animals and the French government guidelines (authorization C60-159-04—December, 2009). […]
Testing occurred in a quiet room under a light level of approximately 400 lux. […] Locomotor activity and rearing were measured by vibrations analysis and the interruption of infra-red beams respectively (ActiV-Meter; Software BIO-ACTIV; Bioseb-Vitrolles-France). The distance travelled (in cm) and the number of rearings were measured for 30 min. […]
(§1) All data are expressed as mean±SEM. The number of marble buried, locomotor activity and the time spent on the rot rod were analyzed by one-way analyse of variance (ANOVA) or the Kruskall Wallis procedure followed post-hoc by the Dunnett's test or Dunn's method respectively to locate the differences between the treated groups and the vehicle group. […]

rotarod performance time = test: Rotarod test (motor performance and coordination); conditions: doses up to 200 mg/kg i.p.; 16 rpm, up to 120 s
Method: (§2) Six-week old NMRI mice (30-32 g) were purchased from Janvier breeding (Le Genest-St Isle; France). Mice were housed ten per translucent polypropylene cage (internal dimensions; 37.5 cm×37.5 cm×[…], L×W×H) under standard laboratory conditions (22±2° C., 12-h light/dark cycle, lights on at 7:00 AM) with food (AO4, SAFE, France) and tap water available ad libitum. No less than one week of rest followed their arrival. All animal procedures were carried out in accordance with the European Community council directive of 24 of Nov. 1986 (86/609/EEC) for the care and use of laboratory animals and the French government guidelines (authorization C60-159-04—December, 2009).
Mice were habituated to the testing room at least 60 min before any behavioural evaluation. […]
The rotarod test was performed in accordance with the teachings of Kohara et al. (2005) J Pharmacol Exp Ther 2005; 315: 163-169. […] In the drug evaluation session, rotarod performance time was measured three times, up to 120 s, and the mean was adopted as the performance time for each animal. […]
as §1

[1] = test system: marble-burying behavior in mice; test: Marble-burying behavior in mice (model of obsessive-compulsive disorder); conditions: for number of marbles buried (at least 2/3 buried, counted after 30 min): vs vehicle; for dose at which the decrease in number of marbles buried reached significance: p<0.05 vs vehicle
Text: Marble-burying behavior in the rodent is considered to be a model of obsessive-compulsive disorder (OCD) and is commonly used to assess the activity of candidate compounds in the prevention or treatment of OCD (Ishimaru et al. (1995) Jpn. J. Pharmacol. 68:65-70; Gaikwad & Parle (2010) Asian Journal of Pharmaceutical and Clinical Research 3:101-103; Prajapati et al. (2011) Pharmacognosy Res. 3:62-66). […] In addition, because the motor behavior can interfere with the burying behavior, the effects of stripentol in the rota rod test and spontaneous locomotion have been also evaluated.
as §2
Mice were habituated to the testing room at least 60 min before any behavioural evaluation. All tests took place between 9:00 AM and 3:00 PM unless otherwise stated. The behavioural tests were performed by different well-trained experimenters who were kept unaware of the treatment administered. All experiments were performed in a randomized manner.
The marble-burying behavior of mice was conducted according to the methodology of Njung'e and Handley (1991) Pharmacol Biochem Behav 1991; 38: 63-67. Briefly, each mouse was placed individually in a polycarbonate cage (Type S-River; 26.5×16×14 cm height) containing 20 clean glass marbles of diameter 1.5 cm evenly spaced on 5 cm deep sawdust. The cage-lid was a metal grid. No food or water was present. The marbles were cleaned with an alcohol solution (10%; v/v) between each animal. The number of marbles at least ⅔ buried was counted 30 min later.
These compounds were administered under a volume of 0.1 ml/10 g of body weight. Control animals received an equivalent volume of vehicle.
All data are expressed as mean±SEM. The number of marble buried, locomotor activity and the time spent on the rot rod were analyzed by one-way analyse of variance (ANOVA) or the Kruskall Wallis procedure followed post-hoc by the Dunnett's test or Dunn's method respectively to locate the differences between the treated groups and the vehicle group. Differences were considered statistically significant when p<0.05. Statistical tests were run using SigmaStat v3.5 (SPSS, inc, Chicago, Ill., USA).

**Q.** `CC(C)(C)C(O)/C=C/c1ccc2c(c1)OCO2` (racemic) [stiripentol] was tested. Which distance travelled (spontaneous locomotion) did it give?
**A.** Its distance travelled is “did not significantly modify the distance travelled”.

**Q.** What about the number of rearings (spontaneous locomotion) of the same compound?
**A.** Its number of rearings is “did not significantly impair the number of rearings”.

**Q.** What about the “time spent on the rota rod” value (rotarod performance time) of the same compound?
**A.** Its value is “without any significant effect”.

**Q.** And the “number of marbles buried (at least 2/3 buried, counted after 30 min)” value ([1]; stiripentol 100-200 mg/kg i.p. 60 min before testing, F(3.42)=5.425, p=0.003)?
**A.** Its value is “dose-dependently decreased the number of marbles buried”.

**Q.** And the “dose at which the decrease in number of marbles buried reached significance” value ([1]; stiripentol i.p. 60 min before testing)?
**A.** The value was 200 mg/kg.

**Q.** How did the “number of marbles buried (at least 2/3 buried, counted after 30 min)” value ([1]; clomipramine 5-20 mg/kg i.p. 30 min before testing, H(3)=20.412, p<0.001) turn out when `CN(C)CCCN1c2ccccc2CCc2ccc(Cl)cc21` [clomipramine] was run?
**A.** Its value is “significantly reduced the number of marbles buried”.

**Q.** What about the “dose at which the decrease in number of marbles buried reached significance” value ([1]; clomipramine i.p. 30 min before testing) of the same compound?
**A.** Its value is 10 mg/kg and 20 mg/kg.
